Test results published in patent US12012411B2, “Viral replication inhibitors” (Katholieke Universiteit Leuven, priority 2011, dated 2024).

Test system: DENV-4 strain Dak HD 34 460
Assay: Antiviral activity against DENV-4 in Vero-B cells (viral RNA load by RT-qPCR)
Assay type: cell-based, Dengue virus
Details: Dengue virus, DENV4, Vero B

Point of comparison: COc1cc(NC(C(=O)c2nn(C)c3ccccc23)c2ccccc2)cc(OCCO)c1 (stereo not shown) [CPD-298], EC50 4.52 µM. Against it:
- COc1cncc(NC(C(=O)c2c[nH]c3ccccc23)c2ccccc2)n1 (stereo not shown) [CPD-252] — 2-fold lower, 2.29 µM
- COc1cc(CO)cc(NC(C(=O)c2c[nH]c3ccc(F)cc23)c2ccccc2)c1 (stereo not shown) [CPD-296] — within 1.5-fold, 3.31 µM
- COc1cccc(NC(C(=O)c2c[nH]c3ccccc23)c2ccccn2)c1 (stereo not shown) [CPD-301] — within 1.5-fold, 4.25 µM
- COc1cc(NC(C(=O)c2cn(C)c3ccccc23)c2ccccc2)cc(OCCO)c1 (stereo not shown) [CPD-305] — 1.8-fold lower, 2.56 µM
- COc1cccc(NC(C(=O)c2c[nH]c3ccccc23)c2cncc(C)c2)c1 (stereo not shown) [CPD-309] — 1.6-fold lower, 2.8 µM
- COc1ccc(C(Nc2cccc(OC)c2)C(=O)c2c[nH]c3ccccc23)nc1 (stereo not shown) [CPD-310] — 2.1-fold higher, 9.37 µM
- COc1cc(CO)cc(NC(C(=O)c2c[nH]c3ccccc23)c2ccc(F)cc2)c1 (stereo not shown) [CPD-313] — within 1.5-fold, 5.84 µM
- COc1cccc(NC(C(=O)c2c[nH]c3ccccc23)c2ccc(C#N)nc2)c1 (stereo not shown) [CPD-314] — 1.9-fold higher, 8.76 µM
- COc1cccc(NC(C(=O)c2c[nH]c3ccccc23)c2ccc(C(F)(F)F)nc2)c1 (stereo not shown) [CPD-315] — 2.3-fold lower, 1.97 µM
- COc1cc(NC(C(=O)c2c[nH]c3cc(F)ccc23)c2ccccc2)cc(OCCO)c1 (stereo not shown) [CPD-316] — within 1.5-fold, 4.42 µM
- COc1cccc(NC(C(=O)c2c[nH]c3ccccc23)c2cccnn2)c1 (stereo not shown) [CPD-317] — 2.3-fold higher, 10.6 µM
- COc1cc(CO)cc(NC(C(=O)c2c[nH]c3c(C)cccc23)c2ccccc2)c1 (stereo not shown) [CPD-318] — 2.4-fold higher, 10.8 µM

Test system: DENV-3 strain H87 prototype
Assay: Antiviral activity against DENV-3 in Vero-B cells (viral RNA load by RT-qPCR)
Assay type: cell-based, Dengue virus
Details: Dengue virus, DENV3, Vero B

Point of comparison: COc1cccc(NC(C(=O)c2c[nH]c3ccccc23)c2ccccn2)c1 (stereo not shown) [CPD-301], EC50 0.5 µM. Against it:
- COc1cncc(NC(C(=O)c2c[nH]c3ccccc23)c2ccccc2)n1 (stereo not shown) [CPD-252] — 25-fold higher, 12.6 µM
- COc1cc(CO)cc(NC(C(=O)c2c[nH]c3ccc(F)cc23)c2ccccc2)c1 (stereo not shown) [CPD-296] — 3.7-fold higher, 1.83 µM
- COc1cc(NC(C(=O)c2nn(C)c3ccccc23)c2ccccc2)cc(OCCO)c1 (stereo not shown) [CPD-298] — 12-fold higher, 5.79 µM
- COc1cc(NC(C(=O)c2cn(C)c3ccccc23)c2ccccc2)cc(OCCO)c1 (stereo not shown) [CPD-305] — 2-fold higher, 1.02 µM
- COc1cccc(NC(C(=O)c2c[nH]c3ccccc23)c2cncc(C)c2)c1 (stereo not shown) [CPD-309] — within 1.5-fold, 0.7 µM
- COc1ccc(C(Nc2cccc(OC)c2)C(=O)c2c[nH]c3ccccc23)nc1 (stereo not shown) [CPD-310] — within 1.5-fold, 0.65 µM
- COc1cc(CO)cc(NC(C(=O)c2c[nH]c3ccccc23)c2ccc(F)cc2)c1 (stereo not shown) [CPD-313] — 2.2-fold higher, 1.11 µM
- COc1cccc(NC(C(=O)c2c[nH]c3ccccc23)c2ccc(C#N)nc2)c1 (stereo not shown) [CPD-314] — 5.6-fold higher, 2.8 µM
- COc1cccc(NC(C(=O)c2c[nH]c3ccccc23)c2ccc(C(F)(F)F)nc2)c1 (stereo not shown) [CPD-315] — 2-fold higher, 1.01 µM
- COc1cc(NC(C(=O)c2c[nH]c3cc(F)ccc23)c2ccccc2)cc(OCCO)c1 (stereo not shown) [CPD-316] — 1.6-fold lower, 0.32 µM
- COc1cccc(NC(C(=O)c2c[nH]c3ccccc23)c2cccnn2)c1 (stereo not shown) [CPD-317] — 26-fold higher, 12.8 µM
- COc1cc(CO)cc(NC(C(=O)c2c[nH]c3c(C)cccc23)c2ccccc2)c1 (stereo not shown) [CPD-318] — 4.6-fold higher, 2.32 µM

Test system: DENV-1 Djibouti strain D1/H/IMTSSA/98/606
Assay: Antiviral activity against DENV-1 in Vero-B cells (viral RNA load by RT-qPCR)
Assay type: cell-based, Dengue virus
Details: Dengue virus, DENV1, Vero B

Point of comparison: COc1cccc(NC(C(=O)c2c[nH]c3ccccc23)c2ccc(C#N)nc2)c1 (stereo not shown) [CPD-314], EC50 1.7 µM. Against it:
- COc1cc(CO)cc(NC(C(=O)c2c[nH]c3ccc(F)cc23)c2ccccc2)c1 (stereo not shown) [CPD-296] — 1.7-fold lower, 0.99 µM
- COc1cc(NC(C(=O)c2nn(C)c3ccccc23)c2ccccc2)cc(OCCO)c1 (stereo not shown) [CPD-298] — within 1.5-fold, 2.02 µM
- COc1cccc(NC(C(=O)c2c[nH]c3ccccc23)c2ccccn2)c1 (stereo not shown) [CPD-301] — 1.5-fold lower, 1.12 µM
- COc1cc(NC(C(=O)c2cn(C)c3ccccc23)c2ccccc2)cc(OCCO)c1 (stereo not shown) [CPD-305] — 3.9-fold lower, 0.44 µM
- COc1cccc(NC(C(=O)c2c[nH]c3ccccc23)c2cncc(C)c2)c1 (stereo not shown) [CPD-309] — 2.7-fold lower, 0.62 µM
- COc1ccc(C(Nc2cccc(OC)c2)C(=O)c2c[nH]c3ccccc23)nc1 (stereo not shown) [CPD-310] — 1.5-fold lower, 1.11 µM
- COc1cc(CO)cc(NC(C(=O)c2c[nH]c3ccccc23)c2ccc(F)cc2)c1 (stereo not shown) [CPD-313] — 2.4-fold lower, 0.72 µM
- COc1cccc(NC(C(=O)c2c[nH]c3ccccc23)c2ccc(C(F)(F)F)nc2)c1 (stereo not shown) [CPD-315] — 4.5-fold lower, 0.38 µM
- COc1cc(NC(C(=O)c2c[nH]c3cc(F)ccc23)c2ccccc2)cc(OCCO)c1 (stereo not shown) [CPD-316] — 4.4-fold lower, 0.39 µM
- COc1cccc(NC(C(=O)c2c[nH]c3ccccc23)c2cccnn2)c1 (stereo not shown) [CPD-317] — 2.4-fold higher, 4.13 µM
- COc1cc(CO)cc(NC(C(=O)c2c[nH]c3c(C)cccc23)c2ccccc2)c1 (stereo not shown) [CPD-318] — 7.7-fold lower, 0.22 µM

Test system: uninfected quiescent Vero-B cells
Assay: Cytotoxic assay in uninfected quiescent Vero-B cells (MTS/PMS)
Details: 4 days (Table 3)

COc1cncc(NC(C(=O)c2c[nH]c3ccccc23)c2ccccc2)n1 (stereo not shown) [CPD-252] gave a CC50 of 68 µM.

Test system: not listed separately
Assay: in vitro
Details: African green monkey, uninfected quiescent Vero-B cells

Point of comparison: COc1cc(CO)cc(NC(C(=O)c2c[nH]c3c(C)cccc23)c2ccccc2)c1 (stereo not shown) [CPD-318], CC50 at 4 days 54 µM. Against it:
- COc1cc(CO)cc(NC(C(=O)c2c[nH]c3ccc(F)cc23)c2ccccc2)c1 (stereo not shown) [CPD-296] — 1.7-fold lower, 31 µM
- COc1cc(NC(C(=O)c2nn(C)c3ccccc23)c2ccccc2)cc(OCCO)c1 (stereo not shown) [CPD-298] — higher, > 116 µM
- COc1cccc(NC(C(=O)c2c[nH]c3ccccc23)c2ccccn2)c1 (stereo not shown) [CPD-301] — 1.6-fold higher, 89 µM
- COc1cc(NC(C(=O)c2cn(C)c3ccccc23)c2ccccc2)cc(OCCO)c1 (stereo not shown) [CPD-305] — higher, > 116 µM
- COc1cccc(NC(C(=O)c2c[nH]c3ccccc23)c2cncc(C)c2)c1 (stereo not shown) [CPD-309] — within 1.5-fold, 74 µM
- COc1ccc(C(Nc2cccc(OC)c2)C(=O)c2c[nH]c3ccccc23)nc1 (stereo not shown) [CPD-310] — 2.2-fold lower, 25 µM
- COc1cc(CO)cc(NC(C(=O)c2c[nH]c3ccccc23)c2ccc(F)cc2)c1 (stereo not shown) [CPD-313] — within 1.5-fold, 58 µM
- COc1cccc(NC(C(=O)c2c[nH]c3ccccc23)c2ccc(C#N)nc2)c1 (stereo not shown) [CPD-314] — within 1.5-fold, 50 µM
- COc1cccc(NC(C(=O)c2c[nH]c3ccccc23)c2ccc(C(F)(F)F)nc2)c1 (stereo not shown) [CPD-315] — 4.2-fold lower, 13 µM
- COc1cc(NC(C(=O)c2c[nH]c3cc(F)ccc23)c2ccccc2)cc(OCCO)c1 (stereo not shown) [CPD-316] — 1.9-fold lower, 29 µM
- COc1cccc(NC(C(=O)c2c[nH]c3ccccc23)c2cccnn2)c1 (stereo not shown) [CPD-317] — 1.6-fold higher, 88 µM

Test system: DENV-2 NGC
Assay: Antiviral activity against DENV-2 NGC in Vero-B cells (viral RNA load by RT-qPCR)
Assay type: cell-based, Dengue virus
Details: Dengue virus, DENV2, Vero B, DENV-2 in Vero-B cells; inhibition of viral RNA replication by 50% (Table 3)

Point of comparison: COc1cc(CO)cc(NC(C(=O)c2c[nH]c3ccc(F)cc23)c2ccccc2)c1 (stereo not shown) [CPD-296], EC50 0.05 µM. Against it:
- COc1cncc(NC(C(=O)c2c[nH]c3ccccc23)c2ccccc2)n1 (stereo not shown) [CPD-252] — 9.6-fold higher, 0.48 µM
- COc1cc(NC(C(=O)c2nn(C)c3ccccc23)c2ccccc2)cc(OCCO)c1 (stereo not shown) [CPD-298] — 8.4-fold higher, 0.42 µM
- COc1cccc(NC(C(=O)c2c[nH]c3ccccc23)c2ccccn2)c1 (stereo not shown) [CPD-301] — 1.6-fold higher, 0.08 µM
- COc1cc(NC(C(=O)c2cn(C)c3ccccc23)c2ccccc2)cc(OCCO)c1 (stereo not shown) [CPD-305] — 1.8-fold higher, 0.09 µM
- COc1cccc(NC(C(=O)c2c[nH]c3ccccc23)c2cncc(C)c2)c1 (stereo not shown) [CPD-309] — 11-fold higher, 0.54 µM
- COc1ccc(C(Nc2cccc(OC)c2)C(=O)c2c[nH]c3ccccc23)nc1 (stereo not shown) [CPD-310] — within 1.5-fold, 0.06 µM
- COc1cc(CO)cc(NC(C(=O)c2c[nH]c3ccccc23)c2ccc(F)cc2)c1 (stereo not shown) [CPD-313] — within 1.5-fold, 0.04 µM
- COc1cccc(NC(C(=O)c2c[nH]c3ccccc23)c2ccc(C#N)nc2)c1 (stereo not shown) [CPD-314] — 4.2-fold higher, 0.21 µM
- COc1cccc(NC(C(=O)c2c[nH]c3ccccc23)c2ccc(C(F)(F)F)nc2)c1 (stereo not shown) [CPD-315] — the same, 0.05 µM
- COc1cc(NC(C(=O)c2c[nH]c3cc(F)ccc23)c2ccccc2)cc(OCCO)c1 (stereo not shown) [CPD-316] — 2.5-fold lower, 0.02 µM
- COc1cccc(NC(C(=O)c2c[nH]c3ccccc23)c2cccnn2)c1 (stereo not shown) [CPD-317] — 12-fold higher, 0.58 µM
- COc1cc(CO)cc(NC(C(=O)c2c[nH]c3c(C)cccc23)c2ccccc2)c1 (stereo not shown) [CPD-318] — within 1.5-fold, 0.06 µM
